# Reference: paper PMC5120204, “Identification of an orally active small-molecule PTHR1 agonist for the treatment of hypoparathyroidism” (Nature Communications, 2016)
# Assays:
# [1] = test system: normal dogs; assay: Preclinical toxicology studies; type: in vivo, dog
# [2] = test system: normal dogs; assay: Single administration study in normal dogs; type: in vivo, dog; details: single oral administrations 3.0−30 mg kg^−1
# Procedure: Marshall Beagle dogs (20 months old, male, Marshall BioResources Japan Inc) were treated once orally (vehicle or PCO371 at 3, 10 or 30 mg kg^−1). Six dogs were assigned to each group. Vehicle for PCO371 was the same as in the rat studies. The sample size was determined based on previous experiments with hPTHs in our laboratories (n=6). Blood was collected from the cephalic vein immediately before and at 1, 2, 4, 6, 8, 10 and 24 h after administration to measure serum Ca levels (o-CPC method, Wako Pure Chemical Industries).
# [3] = test system: TPTX rats; assay: Repeated administration study in TPTX rats, study 1; type: in vivo, rat
# Procedure: TPTX was carried out in 6-week-old female Crl:CD (SD) rats (Charles River Laboratories). Rats with serum Ca levels of <8.0 mg dl^−1 at 5 days after surgery were used in the following experiments. The rats were divided into four groups both in study 1 and 2, each with a similar mean value of serum Ca levels and body weight. Sample sizes were determined as described in the above single administration study. To evaluate the calcemic effects of PCO371 and hPTHs, we defined a target therapeutic range for serum Ca of 7.6–11.2 mg dl^−1, which corresponds to the low normal to normal range of serum Ca levels.
# TPTX rats were treated twice daily (at around 09:00 and 19:00 hours) orally (vehicle or PCO371 at 1, 3 or 9 mg kg^−1) or subcutaneously [hPTH(1–34) or vehicle at 9 nmol kg^−1] for 4 weeks. Four rats were assigned to sham control, and treated with vehicle for PCO371. Vehicles for PCO371 and hPTH(1–34) were the same as in the OVX rat study. Under isoflurane anaesthesia, jugular vein blood was collected immediately before and at 6 and 10 h (for PCO371) or at 1 and 10 h (for hPTH) after administrations to measure the serum Ca levels on days 1 (the first dosing day), 7, 14, 22 and 29. Urine was collected for 24 h by using metabolic cages on days 29–30, and Ca excretion was calculated from urine volume and Ca level. Under isoflurane anaesthesia, jugular vein blood was collected 10 h after administrations to measure serum 1,25(OH)2D3 levels on Day 29 by using a 1,25(OH)2D3 RIA kit (Fujirebio). Four or five TPTX rats were assigned to each dose group. Serum and urine Ca levels were measured in the same way as in the single-dosing study. In another experiment, TPTX rats were treated subcutaneously once daily with hPTH(1–84) at 9 nmol kg^−1, for 4 weeks. Serum Ca was measured immediately before and at 2, 6 and 10 h after administration on day 1 (the first dosing day), 7, 14, 21 and 28 using the same method as described above. Urine was collected for 24 h by using metabolic cages on days 28 and 29, and Ca excretion was calculated from urine volume and Ca level.
# [4] = Pharmacokinetics in OVX rats; type: in vivo; details: female, Crl:CD(SD), rat, plasma
# Procedure: OVX was carried out in 32-week-old female Crl:CD (SD) rats (Charles River Laboratories). Twelve weeks after surgery, lumbar vertebral BMD (L3–L5) was measured in vivo by dual-energy X-ray absorptiometry (DXA) using a DCS-600EX-IIIR bone densitometer (Hitachi Aloka Medical), and the rats were divided into five groups, each with a similar mean value of BMD and body weight. Sample sizes were determined based on previous experiments with hPTHs and a published study with ibandronate and eldecalcitriol in our laboratories[42] (n=7–10). Then, OVX rats were treated once daily intravenously (vehicle or PCO371 at 3 or 10 mg kg^−1) or orally (vehicle or PCO371 at 30 mg kg^−1) or subcutaneously [vehicle or hPTH(1–34) at 0.9 nmol kg^−1] for 12 weeks. Ten to twelve OVX rats were assigned to each dose group. Nine rats were assigned to the sham-operated control group and were treated with vehicle for PCO371. Ten per cent DMSO (Wako Pure Chemical Industries)/10% Kolliphor EL (Sigma-Aldrich) in 10% hydroxypropyl-β-cyclodextrin (HPCD; Nihon Shokuhin Kako)/0.752% glycine (Wako Pure Chemical Industries) buffer was used as vehicle for PCO371, and phosphate-citrate buffer (pH 6.0) was used as vehicle for hPTH(1–34). To label bone-forming surfaces, tetracycline ([…], Nippon Zenyaku Kogyo) was subcutaneously injected on Day 78 and calcein (8 mg kg^−1, Dōjindo Laboratories) was subcutaneously injected on day 83. Under isoflurane anaesthesia, jugular vein blood was collected immediately before and at 1, 2, 6, 10 and 24 h after administration on day 82 to measure plasma concentration of PCO371 or on day 84 to measure serum Ca levels (o-CPC method, Wako Pure Chemical Industries). Urine was collected for 24 h from metabolic cages on days 84–85 to measure urinary collagen type 1 cross-linked C-telopeptide (CTX) by using the RatLaps ELISA System (Immunodiagnostic Systems). Under isoflurane anaesthesia, blood was collected on day 85 from the abdominal aorta to measure serum osteocalcin level by using the Rat Osteocalcin ELISA System (GE Healthcare). The lumbar spine and bilateral femurs were excised after 12 weeks of treatment. The first lumbar vertebra (L1), 3rd to 5th lumbar vertebrae (L3–L5), the right femur, and the right tibia were preserved in 70% ethanol to measure bone histomorphometry and BMD (DCS-600EX; Hitachi Aloka Medical). Measurement of bone histomorphometry was performed by the Ito Bone Histomorphometry Institute (Niigata, Japan). The second lumbar vertebra (L2) was wrapped in saline-soaked gauze and stored at −80 °C until measurement. Ultimate compressive strength (N) of the L2 vertebra was measured by using a mechanical testing machine (TK-252C; Muromachi Kikai).
smiles,measurement,setting,value
"Cc1cc(N2C(=O)NC(=O)C2(C)C)cc(C)c1CCS(=O)(=O)N1CCC2(CC1)N=C(c1ccc(OC(F)(F)F)cc1)NC2=O [PCO371, 1-{3,5-dimethyl-4-[2-({4-oxo-2-[4-(trifluoromethoxy)phenyl]-1,3,8-triazaspiro[4.5]dec-1-en-8-yl}sulfonyl)ethyl]phenyl}-5,5-dimethylimidazolidine-2,4-dione]",serious side effects,[1]; one-month toxicology studies in normal dogs,not any serious side effects
same,serious side effects,[1]; preclinical toxicology studies,no serious side effects
same,serum Ca,[2],significantly increased
same,"Serum 1,25(OH)2D3 levels","[3]; 9 mg kg^−1 twice-daily oral, 4 weeks",increased significantly
same,urinary Ca excretion,"[3]; after 4-week treatment, up to 9 mg kg^−1 twice-daily oral",not increased
same,hypercalcemia (>11.2 mg dl^−1),"[3]; at 0, 6 and 10 h after administrations on days 1, 7, 14, 22 and 29",no hypercalcemia
same,time serum Ca maintained within the target range after each administration,"[3]; twice-daily oral 3 mg kg^−1 or more, 4 weeks",at least 6 h
same,body weight or general condition vs vehicle-treated rats,"[3]; twice-daily oral, 4 weeks",no significant difference
same,dose that increased serum Ca to within the target therapeutic range,"[3]; twice-daily oral, 4 weeks, range 7.6–11.2 mg dl^−1",≥ 3 mg/kg
same,AUC,"[4]; iv, i.v. 3 mg kg-1",15500 ng·h/mL
same,half-life,"[4]; iv, i.v. 3 mg kg-1",2.4 ± 0.2 h
same,AUC,"[4]; iv, i.v. 10 mg kg-1",48700 ng·h/mL
same,half-life,"[4]; iv, i.v. 10 mg kg-1",2.2 ± 0.2 h
same,AUC,"[4]; po, p.o. 30 mg kg-1",29500 ng·h/mL
same,Cmax,"[4]; po, p.o. 30 mg kg-1",95.6 ± 84.4 ng/mL
same,Tmax,"[4]; po, p.o. 30 mg kg-1",1.4 ± 0.8 h
same,half-life,"[4]; po, p.o. 30 mg kg-1",2.5 ± 0.3 h
